Four molecules from patent publication US9980943B2, “Methods of treating muscular dystrophy” (BOARD OF REGENTS OF THE NEVADA SYSTEM OF HIGHER EDUCATION, …, priority 2013, dated 2018) can be followed below.

Holding throughout (assay type): cell-based, mouse
For test [1], the system named is α7 integrin (LacZ reporter in α7βgal+/− myoblasts). The experiment in a line: Myoblast α7+/LacZ integrin FDG assay (Burkin assay in myoblasts, 96-well). The following applies: α7+/LacZ myoblasts, 96-well.
In test [2] the test system is α7 integrin (LacZ reporter in α7+/LacZ myotubes). The experiment in a line: Myotube α7 integrin FDG assay (Burkin assay in myotubes, 96-well). The settings on record: myotubes.
Test [3] has as its system β-galactosidase in CMV-LacZ C2C12 myoblasts. As to the kind of experiment: CMV-LacZ secondary screen in C2C12 myoblasts (β-Gal stabilizing assay). The settings on record: CMV-LacZ C2C12 myoblasts. In a few lines:
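First, C2C12 myoblasts were transfected with a linearized CMV-LACZ vector and clonal lines selected by FDG β-gal assay. Then cells were exposed to compounds at 0.5, 1, 5, 10, 20 and 40 μM in 96-well format, two replicates each, and β-gal measured.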

Test [4] concerns β-galactosidase in CMV-LacZ C2C12 myotubes. As to the kind of experiment: CMV-LacZ secondary screen in C2C12 myotubes (β-Gal stabilizing assay). The following applies: C2C12 CMV-LacZ myotubes, fold relative to DMSO. In a few lines:
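Dose-response runs at 0.5–40 μM (0.5, 1, 5, 10, 20, 40 μM; N=2 per point) used a clonal C2C12 line carrying CMV-LacZ. Cells were assayed as myoblasts or as differentiated myotubes, and β-galactosidase levels were read with the FDG fluorogenic substrate.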

For the molecule `COc1ccc(OC)c(S(=O)(=O)Nc2c(NC3CCCCC3)c3ccccc3oc2=O)c1` [MLS001095705-01], the “Burkin Assay in Myoblasts, signal relative to DMSO” value in test [1] (0.5 uM) is 0.7873; in test [1] (1 uM), 0.8788; in test [1] (5 uM), 1.295; in test [1] (10 uM), 0.969; in test [1] (20 uM), 0.7917; in test [1] (40 uM), 0.7284. Besides, the “Burkin Assay in Myotubes, α7 integrin LacZ reporter signal relative to DMSO” value in test [2] (0.5 uM) was found to be 0.9916; in test [2] (1 uM) it was 0.9463; in test [2] (5 uM), 1.073; in test [2] (10 uM), 0.8798; in test [2] (20 uM), 0.9411; in test [2] (40 uM), 0.7937. For the same molecule, the “CMV-LACZ in Myoblasts (β-galactosidase activity relative to DMSO)” value is given as 1.2060 in test [3] (0.5 uM); 1.2293 in test [3] (1 uM); 0.6476 in test [3] (5 uM); 0.7229 in test [3] (10 uM); 1.1400 in test [3] (20 uM); 1.1723 in test [3] (40 uM). The “CMV-LACZ in Myotubes, signal relative to DMSO” value in test [4] (0.5 uM) amounted to 0.9486; in test [4] (1 uM), 0.9933; in test [4] (5 uM) it was 1.1898; in test [4] (10 uM) it was 1.3164; in test [4] (20 uM) it was 1.2020; in test [4] (40 uM), 1.0800.

On to `COc1ccc(N2CCN(C(=O)c3cc(C)on3)CC2)cc1` [MLS001124046-01], for which the fold induction at 0.5 µM was found to be 1.06 in test [1] (Mus musculus, Myoblast, 48 h, 0.5 uM, read-out: Burkin Assay in Myoblasts, signal relative to DMSO); 1.15 in test [2] (Mus musculus, Myotube, 0.5 uM, read-out: Burkin Assay in Myotubes, α7 integrin LacZ reporter signal relative to DMSO); 1.02 in test [4] (Mus musculus, C2C12, read-out: CMV-LACZ in Myotubes, signal relative to DMSO, 0.5 uM). Moreover, the fold induction at 1 µM in test [1] (Mus musculus, Myoblast, 48 h, 1 uM, read-out: Burkin Assay in Myoblasts, signal relative to DMSO) is 1.16; in test [2] (Mus musculus, Myotube, 1 uM, read-out: Burkin Assay in Myotubes, α7 integrin LacZ reporter signal relative to DMSO), 1.1; in test [4] (Mus musculus, C2C12, read-out: CMV-LACZ in Myotubes, signal relative to DMSO, 1 uM), 1.02. Further, the fold induction at 5 µM in test [1] (Mus musculus, Myoblast, 48 h, 5 uM, read-out: Burkin Assay in Myoblasts, signal relative to DMSO) was found to be 1.08; in test [2] (Mus musculus, Myotube, 5 uM, read-out: Burkin Assay in Myotubes, α7 integrin LacZ reporter signal relative to DMSO), 1.42; in test [4] (Mus musculus, C2C12, read-out: CMV-LACZ in Myotubes, signal relative to DMSO, 5 uM), 0.84. Besides, the fold induction at 10 µM in test [1] (Mus musculus, Myoblast, 48 h, 10 uM, read-out: Burkin Assay in Myoblasts, signal relative to DMSO) is 1.01; in test [2] (Mus musculus, Myotube, 10 uM, read-out: Burkin Assay in Myotubes, α7 integrin LacZ reporter signal relative to DMSO) it was 1.02; in test [4] (Mus musculus, C2C12, read-out: CMV-LACZ in Myotubes, signal relative to DMSO, 10 uM) it was 1.02. Besides, the fold induction at 20 µM in test [1] (Mus musculus, Myoblast, 48 h, 20 uM, read-out: Burkin Assay in Myoblasts, signal relative to DMSO) is 1.1; in test [2] (Mus musculus, Myotube, 20 uM, read-out: Burkin Assay in Myotubes, α7 integrin LacZ reporter signal relative to DMSO) it was 0.893; in test [4] (Mus musculus, C2C12, read-out: CMV-LACZ in Myotubes, signal relative to DMSO, 20 uM), 1.09. Besides, the fold induction at 40 µM in test [1] (Mus musculus, Myoblast, 48 h, 40 uM, read-out: Burkin Assay in Myoblasts, signal relative to DMSO) is 1.07; in test [2] (Mus musculus, Myotube, 40 uM, read-out: Burkin Assay in Myotubes, α7 integrin LacZ reporter signal relative to DMSO), 0.92; in test [4] (Mus musculus, C2C12, read-out: CMV-LACZ in Myotubes, signal relative to DMSO, 40 uM), 0.981. Besides, the “CMV-LACZ in Myoblasts (β-galactosidase activity relative to DMSO)” value in test [3] (0.5 uM) is recorded as 0.8409; in test [3] (1 uM) it was 1.2650; in test [3] (5 uM) it was 0.9307; in test [3] (10 uM) it was 0.8501; in test [3] (20 uM), 0.9881; in test [3] (40 uM) it was 1.0807.

As to `Cc1ccccc1NC(=O)NCCCN1CCN(C)CC1` [MLS001197665-01], the “Burkin Assay in Myoblasts, signal relative to DMSO” value was found to be 1.062 in test [1] (0.5 uM); 1.069 in test [1] (1 uM); 1.015 in test [1] (5 uM); 0.9523 in test [1] (10 uM); 1.094 in test [1] (20 uM); 1.189 in test [1] (40 uM). The “Burkin Assay in Myotubes, α7 integrin LacZ reporter signal relative to DMSO” value in test [2] (0.5 uM) is 1.115; in test [2] (1 uM), 1.068; in test [2] (5 uM), 0.973; in test [2] (10 uM), 0.999; in test [2] (20 uM), 1.001; in test [2] (40 uM) it was 0.9583. Further, the “CMV-LACZ in Myoblasts (β-galactosidase activity relative to DMSO)” value in test [3] (0.5 uM) stood at 0.8584; in test [3] (1 uM), 0.8347; in test [3] (5 uM), 0.9214; in test [3] (10 uM) it was 0.8403; in test [3] (20 uM) it was 0.9556; in test [3] (40 uM), 1.0267. Besides, the “CMV-LACZ in Myotubes, signal relative to DMSO” value in test [4] (0.5 uM) came out at 0.9415; in test [4] (1 uM), 0.8756; in test [4] (5 uM), 0.9771; in test [4] (10 uM) it was 1.2593; in test [4] (20 uM), 1.0047; in test [4] (40 uM), 1.0741.

Regarding `COc1ccc(NC(=O)C2(N(C(=O)Cn3nnnc3N)c3ccc(OC)cc3)CCCCC2)cc1` [MLS001030268-01], the “Burkin Assay in Myoblasts, signal relative to DMSO” value is on record as 1.239 in test [1] (0.5 uM); 1.143 in test [1] (1 uM); 1.49 in test [1] (5 uM); 0.8716 in test [1] (10 uM); 0.726 in test [1] (20 uM); 0.6069 in test [1] (40 uM). Further, the “Burkin Assay in Myotubes, α7 integrin LacZ reporter signal relative to DMSO” value is listed as 1.076 in test [2] (0.5 uM); 1.161 in test [2] (1 uM); 1.213 in test [2] (5 uM); 0.9249 in test [2] (10 uM); 0.6277 in test [2] (20 uM); 0.7606 in test [2] (40 uM). The “CMV-LACZ in Myoblasts (β-galactosidase activity relative to DMSO)” value is on record as 1.0809 in test [3] (0.5 uM); 1.1550 in test [3] (1 uM); 1.1347 in test [3] (5 uM); 1.1787 in test [3] (10 uM); 0.7467 in test [3] (20 uM); 0.5556 in test [3] (40 uM). In addition, the “CMV-LACZ in Myotubes, signal relative to DMSO” value is given as 0.8830 in test [4] (0.5 uM); 1.1711 in test [4] (1 uM); 1.1318 in test [4] (5 uM); 1.1128 in test [4] (10 uM); 0.9365 in test [4] (20 uM); 0.9506 in test [4] (40 uM).
